According to publication PMC11187573, “Identification of SARS-CoV-2 Mpro inhibitors through deep reinforcement learning for de novo drug design and computational chemistry approaches” (RSC Medicinal Chemistry, 2024):
Where two headings read alike, the source gives them in different places.

What was measured:
[1] = tested on: SARS, SARS-CoV-2 and MERS Mpro; settings: cited from earlier work
[2] = tested on: Mpro; settings: ML dataset, cited from earlier work
[3] = tested on: SARS-CoV-2 main protease; assay type: biochemical; settings: Docking validation set, class assigned from COVID Moonshot IC50
[4] = Origin COVID_Moonshot, ref COVID Moonshot

Row | SMILES | IC50 [1, 4] [µM] | IC50 [2, 4] [µM] | label (active / inactive) [3] | other results
1 | O=C(Cc1cncc2ccccc12)N(CCC1CCCCC1)c1cccc(Cl)c1 [MAT-POS-173a45da-1, O=C(Cc1cncc2ccccc12)N(CCC1CCCCC1)c1cccc(Cl)c1, reference compound] | 2.11 | 1.57 |  | 
2 | O=C(Nc1nncn1C1CC1)C1CCOc2ccccc21 (stereo not drawn) [EDJ-MED-0e996074-1, O=C(Nc1nncn1C1CC1)C1CCOc2ccccc21] |  |  | inactive | 
3 | O=C(COc1ccccc1F)Nc1ncnc2[nH]cnc12 [COM-UCB-8c7d23dc-1, O=C(COc1ccccc1F)Nc1ncnc2[nH]cnc12] |  |  | inactive | 
4 | Cc1ccc(-n2ncc3c(=O)n(CC(N)=O)cnc32)cc1C [JAG-UCB-ef2c0e8e-4, Cc1ccc(-n2ncc3c(=O)n(CC(N)=O)cnc32)cc1C] |  |  | inactive | 
5 | O=c1sn(-c2cccc3ccccc23)c(=O)n1Cc1ccccc1 [CHEMBL3545157, O=C(N1Cc2ccccc2)N(c2cccc3ccccc23)SC1=O, reference compound] |  |  |  | IC50 ([1]; Origin ChEMBL, ref ChEMBL): 0.115 µM; IC50 ([2]; Origin ChEMBL, ref ChEMBL): 0.115 µM
6 | O=c1oc(Nc2ccccc2)nc2ccccc12 [MAT-POS-ea426761-13, O=C1OC(Nc2ccccc2)=Nc2c1cccc2, reference compound] | 1.57 | 0.966 |  | 
7 | O=C(Nc1cncc2ccccc12)N(CCC1CCCCC1)c1cccc(Cl)c1 [EDJ-MED-c314995a-1, O=C(Nc1cncc2ccccc12)N(CCC1CCCCC1)c1cccc(Cl)c1, reference compound] | 0.261 | 0.621 |  | 
8 | CC(C)Nc1cccnc1N1CCN(C(=O)c2cc3cc(NS(C)(=O)=O)ccc3[nH]2)CC1 [CHEMBL929, CC(C)Nc1cccnc1N(CC1)CCN1C(c1cc(cc(cc2)NS(C)(=O)=O)c2[nH]1)=O, reference compound] |  |  |  | IC50 ([1]; Origin ChEMBL, ref ChEMBL): 3.99 µM; IC50 ([2]; Origin ChEMBL, ref ChEMBL): 3.99 µM
9 | CC(=O)NCCc1c[nH]c2ccc(O)cc12 [JOH-MSK-a63bdd1d-4, CC(=O)NCCc1c[nH]c2ccc(O)cc12] |  |  | inactive | 
10 | O=C(O)[C@@H](c1ccccc1)N1Cc2ccccc2C1=O [LON-WEI-4d77710c-19, OC([C@@H](c1ccccc1)N(Cc1c2cccc1)C2=O)=O, reference compound] | 1.78 | 1.47 |  | 
11 | O=C(Cn1nnc2ccccc21)N(Cc1ccccn1)c1ccc(-n2cnnc2)cc1 [ALP-POS-c0c213c9-18, O=C(Cn1nnc2ccccc21)N(Cc1ccccn1)c1ccc(-n2cnnc2)cc1] |  |  | inactive | 
12 | NS(=O)(=O)c1ccc(N2CCC([C@@H]3CCCO3)CC2)cc1 [WAR-XCH-b72a1bbc-18, NS(=O)(=O)c1ccc(N2CCC([C@@H]3CCCO3)CC2)cc1] |  |  | inactive | 
13 | c1ccc2sc(SNC3CCCCC3)nc2c1 [CHEMBL1591074, C(CC1)CCC1NSc1nc(cccc2)c2s1, reference compound] |  |  |  | IC50 ([1]; Origin ChEMBL, ref ChEMBL): 0.77 µM; IC50 ([2]; Origin ChEMBL, ref ChEMBL): 0.77 µM
14 | O=C(Nc1nncn1C1CC1)C1CCOc2ccc(Cl)cc21 (stereo not drawn) [JAG-UCB-a3ef7265-20, O=C(Nc1nncn1C1CC1)C1CCOc2ccc(Cl)cc21] |  |  | inactive | 
15 | CN(C)c1ccc(N(Cc2cccc(Cl)c2)C(=O)Cn2nnc3ccccc32)cc1 [ALP-POS-6d04362c-2, CN(C)c(cc1)ccc1N(Cc1cccc(Cl)c1)C(Cn1nnc2c1cccc2)=O, reference compound] | 0.497 | 0.444 |  | 
16 | O=C(Nc1ccccc1)[C@@H](c1ccccc1)N1Cc2ccccc2C1=O [LON-WEI-b2874fec-15, O=C(Nc1ccccc1)[C@@H](c1ccccc1)N1Cc2ccccc2C1=O] |  |  | inactive | 
17 | O=C(c1cncc2ccccc12)N1CCN(c2cccc(Cl)c2)CC1 [MAT-POS-54c4bf04-3, O=C(c1cncc2ccccc12)N(CC1)CCN1c1cccc(Cl)c1, reference compound] | 1.6 | 1.22 |  | 
18 | CC(C)(C)c1ccc(N(C(=O)c2ccc(Cl)o2)C(C(=O)NCCc2cccc(F)c2)c2cccnc2)cc1 (stereo not drawn) [MAT-POS-f2460aef-4, CC(C)(C)c(cc1)ccc1N(C(C(NCCc1cc(F)ccc1)=O)c1cnccc1)C(c(o1)ccc1Cl)=O, reference compound] | 0.315 | 0.415 |  | 
19 | COc1cccc2[nH]c(=O)cc(C(=O)N3CCN(c4cccc(Cl)c4)CC3)c12 [MAT-POS-3b536971-2, COc(cccc1N2)c1C(C(N(CC1)CCN1c1cccc(Cl)c1)=O)=CC2=O, reference compound] | 4.68 | 3.26 |  | 
20 | NCc1cn(CC(=O)N(CC(=O)N2CCNCC2)c2ccc(-c3ccccc3)cc2)nn1 [ALP-POS-c0c213c9-7, NCc1cn(CC(=O)N(CC(=O)N2CCNCC2)c2ccc(-c3ccccc3)cc2)nn1] |  |  | inactive | 
21 | CC1C(O)CCCN1Cc1ccccc1 (stereo not drawn) [MAK-UNK-6435e6c2-9, CC1C(O)CCCN1Cc1ccccc1] |  |  | inactive | 
22 | Cn1ccc(C(=O)NC[C@@H]2CCCO2)n1 [AAR-POS-0daf6b7e-23, Cn1ccc(C(=O)NC[C@@H]2CCCO2)n1] |  |  | inactive | 
